Results from article PMC10649961, “Novel Mitochondria-Targeted Amphiphilic Aminophosphonium Salts and Lipids Nanoparticles: Synthesis, Antitumor Activity and Toxicity” (Nanomaterials, 2023).
Like-named read-outs stand apart in the source and are kept apart here.

Tests used:
[1] = test system: SK-OV-3; test: cells; settings: Homo sapiens, SK-OV-3, 48 h, read-out: Cytotoxic Effects (IC50)
[2] = test system: Escherichia coli ATCC 25922; test: Antimicrobial activity, serial microdilutions, Ec; type: cell-based; parameters: key to Minimum Inhibitory Concentration (MIC) / Minimum bactericidal and fungicidal concentrations (MBC, MFC): – means non-active; settings: for MBC: ATCC25922, read-out: Minimum bactericidal and fungicidal concentrations (MBC, MFC)
Summary of the method: (§1)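 Serial broth microdilution in triplicate; bacteria grown in Mueller-Hinton broth, C. albicans in Sabouraud broth. MRSA-1 is a clinical isolate from a chronic tonsillitis patient.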

[3] = test system: Pseudomonas aeruginosa ATCC 9027; test: Antimicrobial activity, serial microdilutions, Pa; type: cell-based; parameters: key to Minimum Inhibitory Concentration (MIC) / Minimum bactericidal and fungicidal concentrations (MBC, MFC): – means non-active; settings: for MIC: ATCC9027, read-out: Minimum Inhibitory Concentration (MIC)
Summary of the method: as §1

[4] = test system: MRSA-1; test: Antimicrobial activity, serial microdilutions, MRSA-1; type: cell-based, S. aureus; settings: Staphylococcus aureus; for MIC: read-out: Minimum Inhibitory Concentration (MIC); for MBC: read-out: Minimum bactericidal and fungicidal concentrations (MBC, MFC)
Summary of the method: as §1

[5] = test system: T98G
[6] = test system: Hep G2
[7] = test system: Staphylococcus aureus ATCC 6538 P FDA 209P; test: Antimicrobial activity, serial microdilutions, Sa; type: cell-based; settings: Staphylococcus aureus; for MIC: read-out: Minimum Inhibitory Concentration (MIC); for MBC: read-out: Minimum bactericidal and fungicidal concentrations (MBC, MFC)
Summary of the method: (§2)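 Compounds were serially diluted in broth: Mueller-Hinton for the bacterial strains, Sabouraud for the yeast. Each determination was done in triplicate.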

[8] = test system: SK-OV-3
[9] = test system: PC3
[10] = test system: M-HeLa
[11] = test system: HuTu 80 cells; test: Intracellular ROS, CellROX Deep Red flow cytometry; type: cell-based, human; settings: HuTu 80, IC50/2 and IC50, compared with the control
Protocol: ROS generation was investigated using a flow cytometry assay and the CellROX® Deep Red flow cytometry kit. For this, HuTu 80 cells were harvested at 2000 rpm for 5 min and then washed twice with ice-cold PBS, followed by resuspension in 0.1 mL of medium without FBS, to which was added 0.2 μL of CellROX® Deep Red and incubated at 37 °C for 30 min. After three washes, cells were suspended in PBS, and the cell production of ROS was immediately monitored using a flow cytometer (Guava easy Cyte).

[12] = test system: Candida albicans ATCC 10231; test: Antimicrobial activity, serial microdilutions, Ca; type: cell-based; parameters: key to Minimum Inhibitory Concentration (MIC) / Minimum bactericidal and fungicidal concentrations (MBC, MFC): – means non-active; settings: for Minimum Inhibitory Concentration (MIC) / Minimum bactericidal and fungicidal concentrations (MBC, MFC): Ca
Summary of the method: as §1

[13] = test system: Bacillus cereus ATCC 10702 NCTC 8035; test: Antimicrobial activity, serial microdilutions, Bc; type: cell-based; parameters: key to Minimum bactericidal and fungicidal concentrations (MBC, MFC): – means non-active; settings: for MIC / Minimum bactericidal and fungicidal concentrations (MBC, MFC): Bc; for MIC: read-out: Minimum Inhibitory Concentration (MIC)
Summary of the method: as §1

[14] = test system: A549; test: cells; settings: Homo sapiens, A549, 48 h, read-out: Cytotoxic Effects (IC50)
[15] = test system: MCF-7; test: cells; settings: Homo sapiens, MCF7, 48 h, read-out: Cytotoxic Effects (IC50)
[16] = test system: Enterococcus faecalis ATCC 29212; test: Antimicrobial activity, serial microdilutions, Ef; type: cell-based; parameters: key to Minimum Inhibitory Concentration (MIC) / Minimum bactericidal and fungicidal concentrations (MBC, MFC): – means non-active; settings: for MIC: ATCC29212, read-out: Minimum Inhibitory Concentration (MIC)
Summary of the method: as §2

[17] = test system: T98G; test: cells; settings: Homo sapiens, 48 h, read-out: Cytotoxic Effects (IC50)
[18] = test system: HuTu 80; test: cells; settings: Homo sapiens, HuTu80, 48 h, read-out: Cytotoxic Effects (IC50)
[19] = test system: MRSA-2; test: Antimicrobial activity, serial microdilutions, MRSA-2; type: cell-based, S. aureus; settings: Staphylococcus aureus; for MIC: read-out: Minimum Inhibitory Concentration (MIC); for MBC: read-out: Minimum bactericidal and fungicidal concentrations (MBC, MFC)
Summary of the method: as §2

[20] = test system: PANC-1
[21] = test system: A549
[22] = test system: M-HeLa; test: cells; settings: Homo sapiens, 48 h, read-out: Cytotoxic Effects (IC50)
[23] = test system: PANC-1; test: cells; settings: Homo sapiens, PANC-1, 48 h, read-out: Cytotoxic Effects (IC50)
[24] = test system: DU-145; test: cells; settings: Homo sapiens, DU-145, 48 h, read-out: Cytotoxic Effects (IC50), DU-145, MTT assay, 48 h
[25] = test system: HuTu 80
[26] = test system: DU-145
[27] = test system: Hep G2; test: cells; settings: Homo sapiens, HepG2, 48 h, read-out: Cytotoxic Effects (IC50)
[28] = test system: MCF-7
[29] = reference normal cell line not marked at the place (ns cells)
[30] = calculated relative to the cell line Chang liver (b)
[31] = calculated relative to the cell line WI38 (a)

Row | SMILES | IC50 [1] [nM] | Minimum Inhibitory Concentration (MIC) [2] | Minimum bactericidal and fungicidal concentrations (MBC, MFC) [3] | MIC [4] [µM] | MBC [4] [µM] | selectivity index (SI) [6, 30] | MIC [7] [µM] | MBC [7] [µM] | MIC ([13]; Bacillus cereus) [µM] | IC50 [14] [nM] | IC50 [15] [nM] | MIC ([16]; Enterococcus faecalis) [µM] | IC50 [17] [nM] | IC50 [18] [nM] | MIC [19] [µM] | MBC [19] [µM] | IC50 [22] [nM] | IC50 [23] [nM] | IC50 [24] [nM] | IC50 [27] [nM] | further results
1 | CCCCCCCC[P+](N(CC)CC)(N(CC)CC)N(CC)CC [4b, Tris(diethylamino)(octyl)phosphonium iodide] | 26300 ± 1800 | – | – | 15.6 ± 0.3 | 500 ± 47 | 1.4 | 15.6 ± 1.3 | 31.3 ± 2.3 | 7.8 ± 0.7 | 15400 ± 1200 | 2900 ± 200 | 250 ± 19 | 5900 ± 400 | 3200 ± 200 | 15.6 ± 1.2 | 125 ± 9 | 1800 ± 100 | 2300 ± 100 | 4200 ± 300 | 2900 ± 200 | Minimum bactericidal and fungicidal concentrations (MBC, MFC) [2]: –; Minimum Inhibitory Concentration (MIC) [3]: –; selectivity index (SI) [5, 29]: ns (ns—no selectivity); selectivity index (SI) [8, 29]: ns (ns—no selectivity); selectivity index (SI) [9, 29]: ns (ns—no selectivity); selectivity index (SI) [10, 30]: 2.2; ROS production, CellROX Deep Red fluorescence (in words) [11]: increase in the fluorescence intensity; Minimum Inhibitory Concentration (MIC) [12]: –; Minimum bactericidal and fungicidal concentrations (MBC, MFC) [12]: –; Minimum bactericidal and fungicidal concentrations (MBC, MFC) [13]: –; Minimum bactericidal and fungicidal concentrations (MBC, MFC) [16]: –; selectivity index (SI) [20, 30]: 1.7; selectivity index (SI) [21, 29]: ns (ns—no selectivity); selectivity index (SI) [25, 30]: 1.3; selectivity index (SI) [26, 29]: ns (ns—no selectivity); selectivity index (SI) [28, 30]: 1.4
2 | CCCCCCCCCC[P+](N(CC)CC)(N(CC)CC)N(CC)CC [4d, Decyltris(diethylamino)phosphonium iodide] | 10000 ± 900 |  |  | 0.9 ± 0.07 | 62.5 ± 5.4 | 5.2 | 1.9 ± 0.1 | 31.3 ± 2.5 | 0.9 ± 0.07 | 18400 ± 1300 | 2100 ± 200 | 15.6 ± 1.3 | 1800 ± 200 | 2800 ± 200 | 1.9 ± 0.1 | 250 ± 18 | 1700 ± 100 | 1600 ± 100 | 1200 ± 100 | 2300 ± 100 | MIC ([2]; Escherichia coli, ATCC25922, read-out: Minimum Inhibitory Concentration (MIC)): 125 ± 9 µM; MBC ([2]; Escherichia coli): 250 ± 19 µM; MIC ([3]; Pseudomonas aeruginosa): 500 ± 47 µM; MBC ([3]; Pseudomonas aeruginosa, ATCC9027, read-out: Minimum bactericidal and fungicidal concentrations (MBC, MFC)): 500 ± 48 µM; selectivity index (SI) [5, 30]: 6.7; selectivity index (SI) [8, 30]: 1.2; selectivity index (SI) [9, 30]: 1.6; selectivity index (SI) [10, 30]: 7.1; MIC ([12]; Candida albicans, ATCC10231, read-out: Minimum Inhibitory Concentration (MIC)): 125 ± 11 µM; MBC ([12]; Candida albicans, ATCC10231, read-out: Minimum bactericidal and fungicidal concentrations (MBC, MFC)): 250 ± 18 µM; MBC ([13]; Bacillus cereus, read-out: Minimum bactericidal and fungicidal concentrations (MBC, MFC)): 250 ± 22 µM; MBC ([16]; Enterococcus faecalis, ATCC29212, read-out: Minimum bactericidal and fungicidal concentrations (MBC, MFC)): > 500 µM; selectivity index (SI) [20, 30]: 7.5; selectivity index (SI) [21, 29]: ns (ns—no selectivity); selectivity index (SI) [25, 30]: 4.3; selectivity index (SI) [26, 30]: 10; selectivity index (SI) [28, 30]: 5.7
3 | CCCCCCCC[P+](c1ccccc1)(N(CC)CC)N(CC)CC [5b, Bis(diethylamino)(octyl)(phenyl)phosphonium iodide] | 25600 ± 1800 | – | – | 15.6 ± 1.2 | 500 ± 48 | 1.4 | 7.8 ± 0.6 | 250 ± 20 | 7.8 ± 0.6 | 20000 ± 1600 | 2600 ± 200 | 125 ± 11 | 4300 ± 300 | 4000 ± 300 | 15.6 ± 1.2 | 250 ± 20 | 1800 ± 100 | 1200 ± 100 | 2000 ± 100 | 2900 ± 300 | MBC ([2]; Escherichia coli): 500 ± 49 µM; MIC ([3]; Pseudomonas aeruginosa): 500 ± 46 µM; selectivity index (SI) [5, 30]: 1.0; selectivity index (SI) [8, 29]: ns (ns—no selectivity); selectivity index (SI) [9, 29]: ns (ns—no selectivity); selectivity index (SI) [10, 30]: 2.2; ROS production, CellROX Deep Red fluorescence (in words) [11]: increase in the fluorescence intensity; Minimum Inhibitory Concentration (MIC) [12]: –; Minimum bactericidal and fungicidal concentrations (MBC, MFC) [12]: –; Minimum bactericidal and fungicidal concentrations (MBC, MFC) [13]: –; Minimum bactericidal and fungicidal concentrations (MBC, MFC) [16]: –; selectivity index (SI) [20, 30]: 3.3; selectivity index (SI) [21, 29]: ns (ns—no selectivity); selectivity index (SI) [25, 30]: 1.0; selectivity index (SI) [26, 30]: 2.0; selectivity index (SI) [28, 30]: 1.5
4 | CCCCCCCC[P+](c1ccccc1)(c1ccccc1)N(CC)CC [6b, (Diethylamino)(octyl)diphenylphosphonium iodide] | 17600 ± 1400 | – | – | 7.8 ± 0.6 | 31.3 ± 2.6 |  | 7.8 ± 0.6 | 125 ± 11 | 3.9 ± 0.4 | 13000 ± 1100 | 9500 ± 800 | 62.5 ± 5.5 | 3400 ± 200 | 200 ± 10 | 7.8 ± 0.6 | 31.3 ± 2.5 | 950 ± 80 | 1300 ± 100 | 800 ± 70 | 11600 ± 900 | Minimum bactericidal and fungicidal concentrations (MBC, MFC) [2]: –; Minimum Inhibitory Concentration (MIC) [3]: –; selectivity index (SI) [5, 31]: 5.0; selectivity index (SI) [6, 31]: 1.4; selectivity index (SI) [8, 29]: ns (ns—no selectivity); selectivity index (SI) [9, 31]: 19; selectivity index (SI) [10, 31]: 17; Minimum Inhibitory Concentration (MIC) [12]: –; Minimum bactericidal and fungicidal concentrations (MBC, MFC) [12]: –; Minimum bactericidal and fungicidal concentrations (MBC, MFC) [13]: –; Minimum bactericidal and fungicidal concentrations (MBC, MFC) [16]: –; selectivity index (SI) [20, 31]: 12; selectivity index (SI) [21, 31]: 1.2; selectivity index (SI) [25, 31]: 81; selectivity index (SI) [26, 31]: 20; selectivity index (SI) [28, 31]: 1.7
